Assay results as given in patent US20220062240A1, “METHODS OF TREATING CANCER USING A CLK INHIBITOR” (BioSplice Therapeutics, Inc., priority 2018, published 2022).
Read-outs that look alike come from different tables or passages of the source.

Tests used:
Assay type in all cases: cell-based
[1] = test system: lung cancer (4 cell lines); assay: CellTiter-Glo Viability Assay, lung cancer; settings: Homo sapiens, inhibition of cancer cell proliferation
[2] = test system: liver cancer (3 cell lines); assay: CellTiter-Glo Viability Assay, liver cancer; settings: Homo sapiens, inhibition of cancer cell proliferation
[3] = test system: colorectal cancer (6 cell lines); assay: CellTiter-Glo Viability Assay, colorectal cancer; settings: Homo sapiens, inhibition of cancer cell proliferation
[4] = test system: haematopoietic & lymphoid tumors (13 cell lines); assay: CellTiter-Glo Viability Assay, haematopoietic & lymphoid tumors; settings: Homo sapiens, inhibition of cancer cell proliferation
[5] = test system: pancreatic cancer (8 cell lines); assay: CellTiter-Glo Viability Assay, pancreatic cancer; settings: Homo sapiens, inhibition of cancer cell proliferation
all 50 cell lines = assay: CellTiter-Glo Viability Assay, average across all cell lines; settings: Homo sapiens; across all 50 cell lines; read-out: average EC50 for inhibition of cancer cell proliferation
How it was run: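 Cancer cell lines of several tumour types plated at 300-3,000 cells/well and exposed to compound in duplicate for four days at 37° C, 5% CO2, with DMSO-treated controls. Viability read by CellTiter-Glo luminescence (ATP content); EC50 derived from dose-response curves.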

[6] = test system: ovarian cancer (4 cell lines); assay: CellTiter-Glo Viability Assay, ovarian cancer; settings: Homo sapiens, inhibition of cancer cell proliferation
[7] = test system: prostate cancer (5 cell lines); assay: CellTiter-Glo Viability Assay, prostate cancer; settings: Homo sapiens
MCF7 = assay: CellTiter-Glo Viability Assay, breast cancer; settings: Homo sapiens, 96 h; MCF7, breast cancer, four days; read-out: EC50
T47D = assay: CellTiter-Glo Viability Assay, breast cancer; settings: Homo sapiens, 96 h, breast cancer, four days, read-out: EC50
MDA-MB-231-Luc = assay: CellTiter-Glo Viability Assay, breast cancer; settings: Homo sapiens, 96 h; MDA-MB-231-Luc, breast cancer, four days; read-out: EC50
HCC1599 = assay: CellTiter-Glo Viability Assay, breast cancer; settings: Homo sapiens, 96 h; HCC1599, breast cancer, four days; read-out: EC50
BT-549 = assay: CellTiter-Glo Viability Assay, breast cancer; settings: Homo sapiens, 96 h; BT-549, breast cancer, four days; read-out: EC50
CAMA1 = assay: CellTiter-Glo Viability Assay, breast cancer; settings: Homo sapiens, CAMA-1, 96 h; CAMA1, breast cancer, four days; read-out: EC50
ZR-75-1 = assay: CellTiter-Glo Viability Assay, breast cancer; settings: Homo sapiens, 96 h; ZR-75-1, breast cancer, four days; read-out: EC50
DU4475 = assay: CellTiter-Glo Viability Assay, breast cancer; settings: Homo sapiens, DU-4475, 96 h; DU4475, breast cancer, four days; read-out: EC50
[8] = A-427, A427 cell line, read-out: Lung cancer, EC50 (μM) A427
[9] = HCC78, HCC-78 cell line, read-out: Lung cancer, EC50 (μM) HCC-78
[10] = NCI-H460 cell line, read-out: Lung cancer, EC50 (μM) NCI-H460
[11] = NCI-H522 cell line, read-out: Lung cancer, EC50 (μM) NCI-H522
[12] = SNU-398, SNU398 cell line, read-out: Liver cancer, EC50 SNU398
[13] = HEPG2 cell line, read-out: Liver cancer, EC50 HEPG2
[14] = PLC/PRF/5 cell line, read-out: Liver cancer, EC50 PLC/PRF/5
[15] = HCT-116, HCT116 cell line, read-out: Colorectal cancer, EC50 (μM) HCT116
[16] = HT-29, HT29 cell line, read-out: Colorectal cancer, EC50 (μM) HT29
[17] = SW-620, SW620 cell line, read-out: Colorectal cancer, EC50 (μM) SW620
[18] = DLD-1 cell line, read-out: Colorectal cancer, EC50 (μM) DLD-1
[19] = SW48 cell line, read-out: Colorectal cancer, EC50 (μM) SW48
[20] = SW480 cell line, read-out: Colorectal cancer, EC50 (μM) SW480
[21] = DND41, DND-41 cell line, read-out: Haematopoietic & Lymphoid tumors, EC50 (μM) DND-41
[22] = MV4-11, MV-4-11 cell line, read-out: Haematopoietic & Lymphoid tumors, EC50 (μM) MV-4-11
[23] = Rec1, REC-1 cell line, read-out: Haematopoietic & Lymphoid tumors, EC50 (μM) REC-1
[24] = SU-DHL-4, SUDHL4 cell line, read-out: Haematopoietic & Lymphoid tumors, EC50 (μM) SUDHL4
[25] = HL-60 cell line, read-out: Haematopoietic & Lymphoid tumors, EC50 (μM) HL-60
[26] = JM1 cell line, read-out: Haematopoietic & Lymphoid tumors, EC50 (μM) JM1
[27] = JURKAT, Clone E6-1 cell line, read-out: Haematopoietic & Lymphoid tumors, EC50 (μM) JURKAT, Clone E6-1
[28] = JeKo-1 cell line, read-out: Haematopoietic & Lymphoid tumors, EC50 (μM) JeKo-1
[29] = KASUMI-1 cell line, read-out: Haematopoietic & Lymphoid tumors, EC50 (μM) KASUMI-1
[30] = Loucy cell line, read-out: Haematopoietic & Lymphoid tumors, EC50 (μM) Loucy
[31] = MOLT-4 cell line, read-out: Haematopoietic & Lymphoid tumors, EC50 (μM) MOLT-4
[32] = TF-1 cell line, read-out: Haematopoietic & Lymphoid tumors, EC50 (μM) TF-1
[33] = TOLEDO cell line, read-out: Haematopoietic & Lymphoid tumors, EC50 (μM) TOLEDO
[34] = BXPC-3, BxPC3 cell line, read-out: Pancreatic cancer, EC50 BxPC3
[35] = CAPAN-1, Capan1 cell line, read-out: Pancreatic cancer, EC50 Capan1
[36] = Capan-2, Capan2 cell line, read-out: Pancreatic cancer, EC50 Capan2
[37] = MIA PaCa-2 cell line, read-out: Pancreatic cancer, EC50 MIA PaCa-2
[38] = PANC 05.04 cell line, read-out: Pancreatic cancer, EC50 PANC 05.04
[39] = PANC-1 cell line, read-out: Pancreatic cancer, EC50 PANC-1
[40] = UPAFII cell line, read-out: Pancreatic cancer, EC50 UPAFII
[41] = PA-1, PA1 cell line, read-out: Ovarian cancer, EC50 (μM) PA1
[42] = TOV112D, TOV-112D cell line, read-out: Ovarian cancer, EC50 (μM) TOV-112D
[43] = OV-90 cell line, read-out: Ovarian cancer, EC50 (μM) OV-90
[44] = OVCAR-3 cell line, read-out: Ovarian cancer, EC50 (μM) OVCAR-3
[45] = DU-145, read-out: Prostate cancer EC50 Du-145
[46] = PC-3, PC3 cell line, inhibition of cancer cell proliferation, read-out: Prostate cancer EC50 PC3
[47] = 22Rv1 cell line, inhibition of cancer cell proliferation, read-out: Prostate cancer EC50 22Rv1
[48] = LNCap clone FGC cell line, inhibition of cancer cell proliferation, read-out: Prostate cancer EC50 LNCap clone FGC
[49] = VCaP (Sigma) cell line, inhibition of cancer cell proliferation, read-out: Prostate cancer EC50 VCaP (Sigma)

SMILES: CN(C)Cc1cncc(-c2cnc3[nH]nc(-c4nc5c(-c6cc(F)cc(N7CCOCC7)c6)cncc5[nH]4)c3c2)c1 [Compound 46]
- EC50 [1, 8]: 0.591 µM
- EC50 [1, 9]: 4.68 µM
- EC50 [1, 10]: > 10 µM
- EC50 [1, 11]: 0.417 µM
- EC50 [2, 12]: 174 nM
- EC50 [2, 13]: 3590 nM
- EC50 [2, 14]: > 10000 nM
- EC50 [3, 15]: 0.86 µM
- EC50 [3, 16]: 8.89 µM
- EC50 [3, 17]: 0.473 µM
- EC50 [3, 18]: 2.35 µM
- EC50 [3, 19]: 0.469 µM
- EC50 [3, 20]: 0.491 µM
- EC50 [4, 21]: 0.432 µM
- EC50 [4, 22]: 0.039 µM
- EC50 [4, 23]: 2.78 µM
- EC50 [4, 24]: 0.398 µM
- EC50 [4, 25]: 1.42 µM
- EC50 [4, 26]: 0.176 µM
- EC50 [4, 27]: 3.17 µM
- EC50 [4, 28]: 0.182 µM
- EC50 [4, 29]: 0.801 µM
- EC50 [4, 30]: 0.466 µM
- EC50 [4, 31]: 2.96 µM
- EC50 [4, 32]: 6.09 µM
- EC50 [4, 33]: 0.17 µM
- EC50 [5, 34]: 6080 nM
- EC50 [5, 35]: 2370 nM
- EC50 [5, 36]: 4980 nM
- EC50 [5, 37]: 414 nM
- EC50 [5, 38]: 5400 nM
- EC50 [5, 39]: > 10000 nM
- EC50 [5, 40]: 1970 nM
- EC50 (all 50 cell lines): 2860 nM
- EC50 [6, 41]: 0.795 µM
- EC50 [6, 42]: 0.713 µM
- EC50 [6, 43]: 5.69 µM
- EC50 [6, 44]: 0.302 µM
- EC50 [7, 45]: 2570 nM
- EC50 [7, 46]: 1180 nM
- EC50 [7, 47]: 968 nM
- EC50 [7, 48]: 7780 nM
- EC50 [7, 49]: 4540 nM
- EC50 (MCF7): > 10000 nM
- EC50 (T47D): 2360 nM
- EC50 (MDA-MB-231-Luc): 2090 nM
- EC50 (HCC1599): 1170 nM
- EC50 (BT-549): 1170 nM
- EC50 (CAMA1): 2740 nM
- EC50 (ZR-75-1): 1680 nM
- EC50 (DU4475): 4010 nM

SMILES: c1cc2cc(c1)-c1cncc3[nH]c(nc13)-c1n[nH]c3ccc(cc13)-c1cncc(c1)CNC2 [Compound 54]
- EC50 [1, 8]: 0.04 µM
- EC50 [1, 9]: 0.225 µM
- EC50 [1, 10]: > 3.5 µM
- EC50 [1, 11]: 0.04 µM
- EC50 [2, 12]: 21 nM
- EC50 [2, 13]: 377 nM
- EC50 [2, 14]: 1770 nM
- EC50 [3, 15]: 0.056 µM
- EC50 [3, 16]: 1.28 µM
- EC50 [3, 17]: 0.041 µM
- EC50 [3, 18]: 0.136 µM
- EC50 [3, 19]: 0.049 µM
- EC50 [3, 20]: 0.042 µM
- EC50 [4, 21]: 0.031 µM
- EC50 [4, 22]: 0.005 µM
- EC50 [4, 23]: 0.109 µM
- EC50 [4, 24]: 0.036 µM
- EC50 [4, 25]: 0.121 µM
- EC50 [4, 26]: 0.026 µM
- EC50 [4, 27]: 0.17 µM
- EC50 [4, 28]: 0.017 µM
- EC50 [4, 29]: 0.058 µM
- EC50 [4, 30]: 0.041 µM
- EC50 [4, 31]: 0.254 µM
- EC50 [4, 32]: 0.108 µM
- EC50 [4, 33]: 0.022 µM
- EC50 [5, 34]: 361 nM
- EC50 [5, 35]: 569 nM
- EC50 [5, 36]: 94 nM
- EC50 [5, 37]: 41 nM
- EC50 [5, 38]: 453 nM
- EC50 [5, 39]: 2680 nM
- EC50 [5, 40]: 259 nM
- EC50 (all 50 cell lines): 453 nM
- EC50 [6, 41]: 0.147 µM
- EC50 [6, 42]: 0.065 µM
- EC50 [6, 43]: 0.532 µM
- EC50 [6, 44]: 0.037 µM
- EC50 [7, 45]: 98 nM
- EC50 [7, 46]: 55 nM
- EC50 [7, 47]: 117 nM
- EC50 [7, 48]: 234 nM
- EC50 [7, 49]: 162 nM
- EC50 (MCF7): 794 nM
- EC50 (T47D): 167 nM
- EC50 (MDA-MB-231-Luc): 153 nM
- EC50 (HCC1599): 85 nM
- EC50 (BT-549): 75 nM
- EC50 (CAMA1): 167 nM
- EC50 (ZR-75-1): 145 nM
- EC50 (DU4475): 57 nM
